The structures appear in SMILES notation. Values joined by “and” are separate entries in the source; they are usually repeats but may differ in a detail not shown here. Equal values may be shown once.

This assay has as its system THP-1 viability, CellTiter-Glo luminescence, 72 h. In words: PubChem AID 2252.
Take `CC(C)(C)c1ccc(NC(=O)NCc2ccco2)cc1`: the EC50 is 13.3 µM.

For `CCc1nc(SCC(=O)Nc2ccc(N(C)C)cc2)c2ccccc2n1`, the EC50 is 35.3 µM.

`CCSc1ccc2c(c1)N(CCCN1CCN(C)CC1)c1ccccc1S2`: the EC50 is 12.8 µM.

As for `Cc1ccc(NC2=C(Cl)C(=O)OC2OC(=O)c2ccco2)c(C)c1` (centres undefined), the EC50 was 27.9 µM.

`O=C(CSc1cccc2cccnc12)Nc1ccc(S(=O)(=O)N2CCOCC2)cc1`: the 50% effective concentration (EC50) was 24.3 µM.

Consider `COC12C(COC(N)=O)C3=C(C(=O)C(C)=C(N)C3=O)N1CC1C2N1C` (centres undefined), for which the EC50 is 11.6 µM.

For `COc1cccc(F)c1C(C[N+](=O)[O-])c1c(N)n(C)c(=O)n(C)c1=O` (centres undefined), the concentration giving a half-maximal response (EC50) was 6.05 µM.

Regarding `Cc1ccc(Cn2c(=N)c(C(=O)NCc3ccco3)cc3c(=O)n4ccccc4nc32)cc1`, the half-maximal effective concentration (EC50) is 42.6 µM.

Take `Cc1c(O)cccc1C(=O)N[C@@H](CSc1ccccc1)[C@H](O)CN1C[C@H]2CCCC[C@H]2C[C@H]1C(=O)NC(C)(C)C`: the concentration giving a half-maximal response (EC50) is 11.9 µM and 11.6 µM.

Turning to `Cc1ccc2c(c1)C1CN(C)CCC1N2Sc1ccccc1[N+](=O)[O-]` (centres undefined), the half-maximal effective concentration (EC50) is 21.1 µM.

Regarding `CCOC(=O)N/N=C(/C)c1ccc([N+](=O)[O-])o1`, the concentration giving a half-maximal response (EC50) was 34.2 µM.

On to `O=C1C(=O)c2ccccc2-c2ccccc21`, for which the EC50 was 2.22 µM.

In the case of `O=S(=O)(Nc1c(S(=O)(=O)c2ccccc2)c2nc3ccccc3nc2n1C1CCCCC1)c1ccccc1`, the EC50 was 12.3 µM.

As for `CCCOc1ccc(-c2cn3ccccc3n2)cc1`, the EC50 is 43.5 µM.

For the molecule `C#CCOCCOCCOCCNc1nc(N2CCN(C(=O)CCCCCCCCCCNC(=O)[C@H]([C@@H](C)CC)n3cc(CCCCN=C(N)N)nn3)CC2)nc(N2CCN(C(=O)CCCCCCCCCCNC(=O)[C@H](CO)n3cc(CCCCCN)nn3)CC2)n1`, the EC50 was 7.5 µM.

For `CCc1ccc(Nc2n[n+](-c3ccccc3)c(-c3c(Cl)cccc3Cl)s2)cc1`, the half-maximal effective concentration (EC50) was 3.75 µM.

As to `CC(NCC(O)COc1ccc2ccccc2c1)c1ccccc1` (centres undefined), the concentration giving a half-maximal response (EC50) is 6.71 µM.

In the case of `COc1cccc2[nH]c3c(N4CCN(Cc5ccc6c(c5)OCO6)CC4)ncnc3c12`, the EC50 was 42.2 µM.

Regarding `COc1cc(/C=N/N=C(N)N)ccc1OCc1ccc(Cl)cc1`, the EC50 is 7.26 µM.

On to `O[C@@H](c1cc(C(F)(F)F)nc2c(C(F)(F)F)cccc12)[C@H]1CCCCN1`, for which the concentration for a half-maximal effect (EC50) was 3.98 µM.

`CCCCCCCCCn1c2c(c(=N)c3c1CCC3)CCC2`: the half-maximal effective concentration (EC50) was 0.52 µM.

Take `CC1CCN(CCCNC(=O)c2ccc3c(=O)n(Cc4ccc(Cl)cc4)c(=S)[nH]c3c2)CC1`: the 50% effective concentration (EC50) is 16.8 µM.

With `O=C(CSc1ccccn1)N/N=C/c1cc([N+](=O)[O-])ccc1O`, the EC50 was 21.5 µM.

For `CC(=O)Nc1nc(C)c(-c2csc(Nc3ccc(O)cc3)n2)s1`, the EC50 was 4.01 µM.

As to `Cc1ccccc1Nc1cc(C)c2c(O)cccc2n1`, the half-maximal effective concentration (EC50) is 5.03 µM.

On to `COc1cccc(/C=C/C(=O)c2cccc([N+](=O)[O-])c2)c1OC`, for which the 50% effective concentration (EC50) is 22.3 µM.

As to `Cn1cc(C(=O)N/N=C/C(Br)=C/c2ccccc2)ccc1=O`, the EC50 is 14.5 µM.

Regarding `O=C(O)c1cn(C2CC2)c2cc(N3CCN(S(=O)(=O)c4ccc5c(c4)OCCO5)CC3)c(F)cc2c1=O`, the EC50 is below 0.1 µM.

For `O/N=C/C1=C(Cl)c2ccccc2CC1`, the EC50 is below 0.1 µM.

Consider `CNC[C@H](Cc1ccccc1)NC[C@@H](Cc1cccc2ccccc12)NCCc1ccc(C)cc1`, for which the concentration for a half-maximal effect (EC50) is 4.01 µM.

As to `CCOc1cc(CNC(C)(C)CO)cc(Br)c1OCc1ccc(Cl)cc1Cl`, the EC50 is 5.53 µM.

Consider `Clc1c(OCCCn2ccnc2)ccc2ccccc12`, for which the EC50 is 41.1 µM.

Take `CN1CCN(C2=Cc3cc(Cl)ccc3Sc3cc(F)ccc32)CC1`: the half-maximal effective concentration (EC50) was 13.4 µM.

As to `O=C(CCl)NC1CCCc2ccccc21` (centres undefined), the EC50 was 25.7 µM.

Turning to `CC1CCC(C(C)C)C(OC(=O)C[n+]2cc(-c3ccc(Cl)cc3)n3c2CCC3)C1` (centres undefined), the concentration for a half-maximal effect (EC50) was 16.5 µM.

With `CCCCCCCCNC(C)C(O)c1ccc(SC(C)C)cc1` (centres undefined), the concentration giving a half-maximal response (EC50) was 3.57 µM.

`c1ccc2c(c1)nc(N1CCOCC1)c1c3ccccc3[nH]c21`: the EC50 is below 0.1 µM.

On to `Cc1cccc2sc(N(CCCN(C)C)C(=O)COc3ccc(Cl)cc3)nc12`, for which the EC50 is 24.9 µM.

For the molecule `C#CCOCCOCCOCCNc1nc(N2CCN(C(=O)CCCCCCCCCCNC(=O)[C@H]([C@@H](C)CC)n3cc(CCCCCN)nn3)CC2)nc(N2CCN(C(=O)CCCCCCCCCCNC(=O)[C@H]([C@@H](C)CC)n3cc(CCCCN=C(N)N)nn3)CC2)n1`, the EC50 was 5.17 µM.

With `C#CCOCCOCCOCCNc1nc(N2CCN(C(=O)CCCCCCCCCCNC(=O)[C@@H](CCSC)n3cc(CCO)nn3)CC2)nc(N2CCN(C(=O)CCCCCCCCCCNC(=O)[C@H]([C@@H](C)CC)n3cc(CCCCCN)nn3)CC2)n1`, the concentration giving a half-maximal response (EC50) was 12.9 µM.

For `CCOC(=O)c1ccccc1-n1c(C)cc(C2N=C(N)Nc3nc4ccccc4n32)c1C` (centres undefined), the EC50 was 6.21 µM.

As to `CCCCCOc1ccc(C)cc1CN(CCCl)CCCl`, the EC50 was 28.9 µM.

For the molecule `CCN1CCCC1CNC(=O)C1CCN(Cc2nc(-c3cccc(Br)c3)oc2C)CC1` (centres undefined), the EC50 is 12.4 µM.

Take `OCCNc1nc(Nc2ccc(Br)cc2)nc2ccccc12`: the concentration for a half-maximal effect (EC50) was 0.62 µM.

`Cc1cccc(Nc2nc(NCc3ccco3)c3ccccc3n2)c1`: the concentration giving a half-maximal response (EC50) was 4.43 µM.

In the case of `COc1cccc(Nc2cc(C)nc3ccccc23)c1`, the half-maximal effective concentration (EC50) was 30.5 µM.

Turning to `CCOC(=O)c1c(-c2ccc(-c3ccccc3)cc2)csc1NC(=O)CNCCN(C)C`, the 50% effective concentration (EC50) is 7.38 µM.

Regarding `COc1ccc(CCN2CCC(Nc3nc4ccccc4n3Cc3ccc(F)cc3)CC2)cc1`, the half-maximal effective concentration (EC50) was 3.8 µM.

Take `COc1ccc(C(=O)NC(=S)NNC(=O)CCc2ccccc2)cc1`: the EC50 is 6.09 µM.

For the molecule `CCCCCCCCCCCCCCCC[N+](C)(C)CCN(Cc1ccc(OC)cc1)c1ncccn1`, the EC50 was 0.36 µM.

Turning to `CCCCCCCCCCCCOC(=O)C[N+](C)(C)C`, the EC50 is 23.7 µM.

Regarding `CNCc1c(OCc2ccccc2F)ccc2ccccc12`, the half-maximal effective concentration (EC50) was 15.2 µM.

In the case of `O=C(N/N=C/c1c[nH]c2ccccc12)c1cc2ccccc2o1`, the EC50 is 21.3 µM.

Regarding `Cc1cc(N/N=C/c2ccc(O)cc2)c2cccc(C)c2n1`, the EC50 was 7.3 µM.

Take `C#CCOCCOCCOCCNc1nc(N2CCN(C(=O)CCCCCCCCCCNC(=O)Cn3cc(C[C@@H](C)O)nn3)CC2)nc(N2CCN(C(=O)CCCCCCCCCCNC(=O)[C@H](CCCN=C(N)N)n3cc(C[C@@H](C)CC)nn3)CC2)n1`: the concentration giving a half-maximal response (EC50) was 14.3 µM.

For the molecule `O=C(NC(=S)NNC(=O)c1cnccn1)c1ccc(F)cc1`, the 50% effective concentration (EC50) was 5.51 µM.

As to `O=C(CCN1Cc2ccccc2C1)c1ccc2c(c1)OCCO2`, the EC50 was 19 µM.

Turning to `COc1cccc(/C=N\NC(=O)Cn2nnc3ccccc32)c1O`, the EC50 was 14.6 µM.

Turning to `Clc1ccc(C[n+]2cc(-c3ccc(Cl)cc3)n3c2CCC3)cc1`, the EC50 was 22.7 µM.

On to `O=c1cc(-c2ccccc2)cc(-c2ccccc2)n1O`, for which the EC50 was 14 µM.

As to `CCCCCCCCCCCCCCCC[n+]1ccc(/C=N/O)cc1`, the EC50 is 0.3 µM.

As to `c1cc2c(cc1Oc1nc(N3CCOCC3)nc(N3CCOCC3)n1)OCO2`, the concentration giving a half-maximal response (EC50) was below 0.1 µM.

For the molecule `O=c1c2ccccc2nc(-c2cccc(Cl)c2)n1O`, the EC50 is 18.2 µM.

Take `C=CCNc1ncnc2c1[nH]c1ccc(Cl)cc12`: the EC50 is 7.13 µM.

`COc1cccc(/C=N/NC(=O)C(=O)N2CCCC2)c1O`: the EC50 was 40 µM.

For the molecule `CCCCCCCCCCOC(=O)Cn1c(COc2ccc(C)cc2)[n+](C)c2ccccc21`, the half-maximal effective concentration (EC50) is 2.36 µM.

Turning to `N=c1n(CC(=O)c2ccc(Br)s2)c2ccccc2n1Cc1ccccc1`, the concentration for a half-maximal effect (EC50) is 4.4 µM.

Take `CCc1cccc(NC(=O)CSC2=NS(=O)(=O)c3ccccc32)c1`: the half-maximal effective concentration (EC50) was 15.6 µM.

Turning to `Oc1ccc(/C=N/N=C(c2ccccc2)c2ccccc2)c(O)c1O`, the EC50 is 7.47 µM.

As for `Cc1cc(NC(=O)/C=C/C(=O)N(c2ccccc2C)C(C(=O)NC2CCCC2)c2ccc(F)cc2)no1` (centres undefined), the EC50 is 37.5 µM.

Consider `COC(=O)C1C(O)C(C)C(O)C(C)/C=C\C=C(/C)C(=O)Nc2c(C)c(OC(C)=O)c3c(c2O)C(=O)C(C)=C2OCOC(=C23)/C(C)=C/C(C)(O)C(O)C(C)C1O` (centres undefined), for which the half-maximal effective concentration (EC50) was below 0.1 µM.

Regarding `CCOc1cc(Br)cc(/C=N/NC(=O)c2cccnc2)c1O`, the 50% effective concentration (EC50) is 7.58 µM.

Take `CN1CCN(C2=Cc3ccccc3Sc3cc(F)c(Cl)cc32)CC1`: the EC50 was 18.2 µM.

`CN1CCCN(C(c2ccccc2)c2ccc(Cl)cc2)CC1` (centres undefined): the EC50 is 8.99 µM.

On to `CN(C)CCCN1c2ccccc2CCc2ccc(Cl)cc21`, for which the concentration for a half-maximal effect (EC50) is 18.4 µM.

In the case of `Nc1nc(Nc2ccc(Cl)cc2)nc2ccccc12`, the EC50 was 6.06 µM.

`COc1cccc(-c2nnc(NC(=O)c3ccc(Cl)s3)o2)c1`: the EC50 is 15 µM.

Take `CN1CCN(C(c2ccc(C(F)(F)F)cc2)c2ccc3cccnc3c2O)CC1` (centres undefined): the EC50 was 1.36 µM.

Turning to `Cc1ccc(C(C[N+](=O)[O-])c2c(N)n(C)c(=O)n(C)c2=O)cc1` (centres undefined), the concentration giving a half-maximal response (EC50) was 26.3 µM.

`COc1ccc(CNCCC(c2ccccc2)c2ccc3c(c2)OCO3)cc1` (centres undefined): the EC50 is 13.4 µM.

Take `CCCCCCCCCCCCCCCC[n+]1cccc(C(=O)N(CC)CC)c1`: the concentration for a half-maximal effect (EC50) is 0.44 µM.

Consider `O=C(CCN1CCOCC1)c1ccc(Br)cc1`, for which the concentration giving a half-maximal response (EC50) was 43.2 µM.

With `S=C1SCN(Cc2cccnc2)CN1Cc1cccnc1`, the EC50 is 3.92 µM.

For `COc1ccc(N=CC2=C(Nc3ccc(OC)cc3)c3c(C)nn(-c4ccccn4)c3CC2)cc1`, the EC50 was 2.16 µM.

As to `COc1ccc(C(C(=O)Nc2ccc(C(C)C)cc2)N(Cc2ccco2)C(=O)CC2NC(=O)NC2=O)cc1` (centres undefined), the EC50 is 31.9 µM.

Regarding `C=CCN(c1ccccc1)S(=O)(=O)c1cccc2cccnc12`, the concentration for a half-maximal effect (EC50) was 49.4 µM.

As to `CC(NCC(O)COCCC12CC3CC(CC(C3)C1)C2)c1ccccc1` (centres undefined), the EC50 is 9.86 µM.

On to `Cc1nn(-c2ccccc2)c(C)c1/C=N/n1c(-c2ccc(C(C)(C)C)cc2)n[nH]c1=S`, for which the EC50 was 32.1 µM.

Consider `CCOc1cccc(CNCCc2c(C)[nH]c3ccc(OC(F)(F)F)cc23)c1O`, for which the half-maximal effective concentration (EC50) is 3.51 µM.

With `Oc1c(CN2CCOCC2)cc(COCc2ccccc2)c2cccnc12`, the EC50 is 2.24 µM.

For the molecule `CC(=O)NC(c1ccc(Cl)cc1Cl)c1ccc2cccnc2c1O` (centres undefined), the EC50 is 7.25 µM.

As to `O=C(N/N=C/c1ccc(O)cc1O)C(=O)N/N=C/c1ccc(O)cc1O`, the half-maximal effective concentration (EC50) was 12 µM.

As for `O=C(Nc1ccncc1)c1cc(-c2ccccn2)nc2ccccc12`, the concentration for a half-maximal effect (EC50) is 23.7 µM.

Take `Cc1c(CCOC(=O)C2C3CC4CC(C3)CC2C4)sc[n+]1CC(=O)c1ccc(Br)cc1` (centres undefined): the 50% effective concentration (EC50) was 6.34 µM.

The EC50 is the concentration at which the effect is half-maximal.
